Measured values as given in ChEMBL document CHEMBL4152367, “Discovery of a Potent Thiazolidine Free Fatty Acid Receptor 2 Agonist with Favorable Pharmacokinetic Properties” (J Med Chem, 2018).
Active and inactive are the calls of the source. No cut-off for these calls is given here.

Legend:
[1] = target: T1, Free fatty acid receptor 2 (Mus musculus, UniProt Q8VCK6); experiment: Agonist activity at FFA2R in mouse mature adipocytes assessed as inhibition of isoproterenol-induced glycerol production
T1 sequence (Q8VCK6 whole entry): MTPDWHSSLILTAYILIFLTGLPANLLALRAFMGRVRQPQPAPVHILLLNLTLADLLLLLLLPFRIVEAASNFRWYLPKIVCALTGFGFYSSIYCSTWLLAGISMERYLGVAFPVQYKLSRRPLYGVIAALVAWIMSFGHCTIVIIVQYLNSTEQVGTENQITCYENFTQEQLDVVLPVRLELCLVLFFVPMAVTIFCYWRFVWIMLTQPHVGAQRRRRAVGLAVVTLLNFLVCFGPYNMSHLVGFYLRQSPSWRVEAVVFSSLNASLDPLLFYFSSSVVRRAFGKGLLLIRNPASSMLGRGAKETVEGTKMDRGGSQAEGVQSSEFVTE

[2] = target: T2, Free fatty acid receptor 2 (Homo sapiens) (UniProt O15552); experiment: Agonist activity to human FFA2R expressed in HEK293T cells assessed as induction beta-arrestin-2 recruitment up to 30 uM after 10 mins by BRET assay relative control; assay type: functional, cell-based
T2 sequence (whole entry): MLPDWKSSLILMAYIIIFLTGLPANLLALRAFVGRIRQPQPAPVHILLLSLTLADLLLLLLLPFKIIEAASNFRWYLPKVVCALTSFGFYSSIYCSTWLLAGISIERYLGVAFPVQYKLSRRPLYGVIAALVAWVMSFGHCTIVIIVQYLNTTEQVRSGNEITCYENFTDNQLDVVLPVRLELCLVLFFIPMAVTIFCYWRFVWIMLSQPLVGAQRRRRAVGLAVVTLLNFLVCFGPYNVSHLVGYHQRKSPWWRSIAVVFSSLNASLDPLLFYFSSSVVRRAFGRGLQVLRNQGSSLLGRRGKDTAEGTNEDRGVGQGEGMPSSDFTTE

[3] = target: T2, Free fatty acid receptor 2 (Homo sapiens); experiment: Agonist activity at human FFA2R expressed in Flp-InT-REx 293 cells assessed as reduction of forskolin-induced cAMP production up to 30 uM after 30 mins by TR-FRET assay relative to control; assay type: functional, cell-based
[4] = target: T2, Free fatty acid receptor 2 (Homo sapiens); experiment: Agonist activity to human FFA2R expressed in HEK293T cells assessed as induction beta-arrestin-2 recruitment at 100 uM after 10 mins by BRET assay relative to control; assay type: functional, cell-based
[5] = AUC (0 to infinity) in Balb/c mouse at 5 mg/kg, ip by HPLC-MS/MS analysis; assay type: ADME, organism-based; set-up: dose 5 mg/kg, time infinity, route intraperitoneal; settings: in vivo
[6] = Half life in Balb/c mouse at 5 mg/kg, ip by HPLC-MS/MS analysis; assay type: ADME, organism-based; settings: in vivo

SMILES | Activity [2] | Activity [3] | other results
CCC(=O)O [PROPIONIC ACID] | – | – | EC50 [1]: 251 µM
Cc1noc(C)c1-c1ccc(C(=O)N2[C@@H](c3ccccn3)SC[C@H]2C(=O)O)cc1 | – | inactive | –
O=C(O)[C@@H]1CS[C@H](c2ccccc2Cl)N1C(=O)c1ccccc1 | inactive | inactive | –
COc1ccccc1-c1ccc(C(=O)N2[C@@H](c3ccccc3Cl)CC[C@H]2C(=O)O)cc1 | – | – | AUC(0-inf) [5]: 417 ng·h/mL; half-life [6]: 50 min

More lines, main results first:

Activity [2] | Activity [3] | SMILES | other results
inactive | inactive | COc1ccccc1-c1ccc(C(=O)N2[C@H](C(=O)O)CO[C@@H]2C(C)(C)C)cc1 | –
– | inactive | COc1ccccc1-c1ccc(C(=O)N2[C@H](C(=O)O)CS[C@@H]2C(C)(C)C)cc1 | Activity [4]: 50%
